Assay results: US9512086B2, “Compound for promoting apoptosis of cancer cells and a pharmaceutical composition containing the same and uses thereof” (National Chiao Tung University, priority 2014, dated 2016)

Assays:
[1] = test system: H1299 human non-small cell lung cell line; assay: MTT cell viability, H1299 cells; format: cell-based; conditions: 24 hours
Method: After drug treatment, the cells were washed with PBS and replaced with fresh complete RPMI-1640 medium for 2 days. Thereafter, the medium was replaced and the cells were incubated with 0.5 mg/mL of MTT reagent (Sigma Chemical Co., St. Louis, Mo.) in complete RPMI-1640 medium for 4 hours. The intensity of formazan was measured at 565 nm using a plate reader (VERSAmax, Molecular Dynamics, Sunnyvale, Calif.). The relative percentage of cell viability was calculated by dividing the absorbance of treated cells by that of the control in each experiment.

A549 cells = assay: Survivin overexpression (pCT-GFP-sur8 transfection) and MTT cell viability; format: cell-based, human; conditions: A549 cells transfected with pCT-GFP-sur8 vs pCT-GFP2
Method: To further determine the effect that Analogue-18 inhibits surviving so as to induce apoptosis. The pCT-GFP2 and pCT-GFP-sur8 were employed for transfection using Lipofectamine™ 2000 (Invitrogen) according to the manufacturer's instructions. The pCT-GFP-sur8 overexpressed surviving, and the pCT-GFP2 only overexpressed green fluorescent protein and was used as a control. A549 cells were plated in 60-mm Petri dish at a density of 2×10^6 per well for 16 to 20 hours, then were transfected with 20 μg of pCT-GFP-sur8 or pCT-GFP2 in serum-free medium for 8 hours at 37° C. in a CO2 incubator. Then, the equal amount medium with 20% fetal bovine serum (FBS) was added without removing the transfection mixture. And proceed the incubation for additional 24 hours. After transfection, the cells were subjected to cytotoxicity assay according to Example 2 and Western blot analysis according to Example 4.

[2] = target: T1, LIMK1 (LIM motif-containing protein kinase-1) (Homo sapiens, UniProt P53667); assay: KinaseProfiler assay, LIMK1; format: biochemical; conditions: LIMK1; 10 μM; read-out: KAR value (kinase activity remaining)
T1 construct: purchased Merck Millipore (KinaseProfiler service)
From the text: (§1) The kinase activity remaining (KAR) value is […] related to kinase activity. […]

[3] = target: T2, FGFR1 (fibroblast growth factor receptor-1) (Homo sapiens, UniProt P11362); assay: KinaseProfiler assay, FGFR1; format: biochemical; conditions: read-out: KAR value (kinase activity remaining)
T2 construct: purchased Merck Millipore (KinaseProfiler service)
From the text: as §1

survivin = assay: Western blot of survivin protein expression in A549 cells; conditions: 0 to 40 μM, 24 hours
Method: The protease inhibitors including 1 μg/ml aprotinin, 0.5 μg/ml leupeptin, and 100 μg/ml 4-(2-aminoethyl)benzenesulfonyl fluoride were added to the cell suspensions. The lysates were vibrated for 30 minutes at 4° C. and centrifuged at 10,000 rpm for 10 minutes. The protein concentrations were determined by the BCA protein assay kit (Pierce, Rockford, Ill.). […] The membranes were blocked overnight at 4° C. using blocking buffer (5% non-fat dried milk in solution containing 50 mM Tris/HCl (pH 8.0), 2 mM CaCl2, 80 mM NaCl, 0.05% Tween 20 and 0.02% sodium azide). The membranes were sequentially hybridized with primary antibody and followed with a horseradish peroxidase-conjugated secondary antibody. The protein bands were visualized on the X-ray film using the enhanced chemiluminescence detection system (PerkinElmer Life and Analytical Sciences, Boston, Mass.). […] To verify equal protein loading and transfer, actin was used as the protein loading control. The gel digitizing software, Un-Scan-It gel (Ver. 5.1, Silk Scientific, Inc., Orem, Utah), was used to analyze the intensity of protein bands on X-ray film.
A549 cells were plated at a density of 1×10^6 cells per 60-mm Petri dish in complete medium for 16 to 20 hours. […] To verify equal protein loading and transfer, actin was used as the protein loading control.

EGFR protein kinase = target: T3, EGFR protein kinase (Homo sapiens, UniProt P00533); assay: ADP-Glo Kinase Assay, EGFR protein kinase activity; format: biochemical
T3 construct: purchased Promega

[4] = target: T4, STK10 (lymphocyte-oriented kinase) (Homo sapiens, UniProt O94804); assay: KinaseProfiler assay, STK10; format: biochemical; conditions: read-out: KAR value (kinase activity remaining)
T4 construct: purchased Merck Millipore (KinaseProfiler service)
From the text: as §1

MARK2 (PAR-1Ba) = target: T5, MARK2 (PAR-1Ba) (Homo sapiens, UniProt Q7KZI7); assay: KinaseProfiler assay, MARK2; format: biochemical; conditions: MARK2; 10 μM; read-out: KAR value (kinase activity remaining)
T5 construct: purchased Merck Millipore (KinaseProfiler service)
From the text: as §1

T3 sequence (P00533 25-1210): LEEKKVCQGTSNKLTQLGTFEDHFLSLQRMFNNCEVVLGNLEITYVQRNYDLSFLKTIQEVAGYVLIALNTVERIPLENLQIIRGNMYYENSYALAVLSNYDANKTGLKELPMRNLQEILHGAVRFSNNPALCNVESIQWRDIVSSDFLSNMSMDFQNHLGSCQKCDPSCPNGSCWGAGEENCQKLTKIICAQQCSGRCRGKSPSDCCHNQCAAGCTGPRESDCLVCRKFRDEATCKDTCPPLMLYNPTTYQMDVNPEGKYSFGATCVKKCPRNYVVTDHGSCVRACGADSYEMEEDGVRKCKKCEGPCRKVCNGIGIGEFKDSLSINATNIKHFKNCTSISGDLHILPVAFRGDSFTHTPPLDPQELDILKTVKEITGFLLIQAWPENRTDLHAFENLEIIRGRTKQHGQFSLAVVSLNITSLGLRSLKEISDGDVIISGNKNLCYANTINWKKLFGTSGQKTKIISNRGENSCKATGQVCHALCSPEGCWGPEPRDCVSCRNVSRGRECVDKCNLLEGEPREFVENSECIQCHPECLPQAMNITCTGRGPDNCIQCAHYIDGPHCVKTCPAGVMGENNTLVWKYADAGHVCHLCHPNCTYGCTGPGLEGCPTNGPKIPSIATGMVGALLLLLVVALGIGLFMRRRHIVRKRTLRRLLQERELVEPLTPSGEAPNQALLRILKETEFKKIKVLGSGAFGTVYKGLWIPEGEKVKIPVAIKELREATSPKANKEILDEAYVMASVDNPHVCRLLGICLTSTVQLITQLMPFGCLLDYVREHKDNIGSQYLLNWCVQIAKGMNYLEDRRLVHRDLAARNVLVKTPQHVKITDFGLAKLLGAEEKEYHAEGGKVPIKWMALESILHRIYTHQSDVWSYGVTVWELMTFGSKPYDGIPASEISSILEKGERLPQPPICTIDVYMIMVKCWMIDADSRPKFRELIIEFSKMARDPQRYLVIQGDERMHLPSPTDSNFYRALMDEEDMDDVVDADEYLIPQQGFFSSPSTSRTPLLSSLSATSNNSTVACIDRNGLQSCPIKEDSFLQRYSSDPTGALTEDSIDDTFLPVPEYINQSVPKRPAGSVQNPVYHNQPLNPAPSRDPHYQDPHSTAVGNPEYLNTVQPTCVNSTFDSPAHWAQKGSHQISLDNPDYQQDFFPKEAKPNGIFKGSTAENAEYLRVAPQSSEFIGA
T2 sequence (P11362 22-822): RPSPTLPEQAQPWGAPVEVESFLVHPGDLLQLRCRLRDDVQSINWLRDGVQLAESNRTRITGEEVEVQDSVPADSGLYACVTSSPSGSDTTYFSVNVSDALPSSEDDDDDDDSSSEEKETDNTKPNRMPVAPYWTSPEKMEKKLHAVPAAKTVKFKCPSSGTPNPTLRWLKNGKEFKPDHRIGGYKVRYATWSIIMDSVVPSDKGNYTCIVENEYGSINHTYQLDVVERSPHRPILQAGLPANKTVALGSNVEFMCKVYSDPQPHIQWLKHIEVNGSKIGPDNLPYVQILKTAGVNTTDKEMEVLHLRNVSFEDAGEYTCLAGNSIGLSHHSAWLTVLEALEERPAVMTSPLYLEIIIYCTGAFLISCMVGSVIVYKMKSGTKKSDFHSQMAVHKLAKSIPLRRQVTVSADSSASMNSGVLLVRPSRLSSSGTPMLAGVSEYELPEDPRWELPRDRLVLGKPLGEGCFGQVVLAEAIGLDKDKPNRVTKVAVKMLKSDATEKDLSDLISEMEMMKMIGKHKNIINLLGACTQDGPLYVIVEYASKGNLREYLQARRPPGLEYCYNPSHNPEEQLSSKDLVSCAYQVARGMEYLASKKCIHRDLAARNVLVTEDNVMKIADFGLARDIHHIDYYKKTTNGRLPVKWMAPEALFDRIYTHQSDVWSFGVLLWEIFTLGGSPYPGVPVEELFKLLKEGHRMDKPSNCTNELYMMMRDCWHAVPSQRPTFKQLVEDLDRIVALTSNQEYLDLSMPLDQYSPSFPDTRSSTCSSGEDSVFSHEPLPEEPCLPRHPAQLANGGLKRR
T4 sequence (O94804 whole entry): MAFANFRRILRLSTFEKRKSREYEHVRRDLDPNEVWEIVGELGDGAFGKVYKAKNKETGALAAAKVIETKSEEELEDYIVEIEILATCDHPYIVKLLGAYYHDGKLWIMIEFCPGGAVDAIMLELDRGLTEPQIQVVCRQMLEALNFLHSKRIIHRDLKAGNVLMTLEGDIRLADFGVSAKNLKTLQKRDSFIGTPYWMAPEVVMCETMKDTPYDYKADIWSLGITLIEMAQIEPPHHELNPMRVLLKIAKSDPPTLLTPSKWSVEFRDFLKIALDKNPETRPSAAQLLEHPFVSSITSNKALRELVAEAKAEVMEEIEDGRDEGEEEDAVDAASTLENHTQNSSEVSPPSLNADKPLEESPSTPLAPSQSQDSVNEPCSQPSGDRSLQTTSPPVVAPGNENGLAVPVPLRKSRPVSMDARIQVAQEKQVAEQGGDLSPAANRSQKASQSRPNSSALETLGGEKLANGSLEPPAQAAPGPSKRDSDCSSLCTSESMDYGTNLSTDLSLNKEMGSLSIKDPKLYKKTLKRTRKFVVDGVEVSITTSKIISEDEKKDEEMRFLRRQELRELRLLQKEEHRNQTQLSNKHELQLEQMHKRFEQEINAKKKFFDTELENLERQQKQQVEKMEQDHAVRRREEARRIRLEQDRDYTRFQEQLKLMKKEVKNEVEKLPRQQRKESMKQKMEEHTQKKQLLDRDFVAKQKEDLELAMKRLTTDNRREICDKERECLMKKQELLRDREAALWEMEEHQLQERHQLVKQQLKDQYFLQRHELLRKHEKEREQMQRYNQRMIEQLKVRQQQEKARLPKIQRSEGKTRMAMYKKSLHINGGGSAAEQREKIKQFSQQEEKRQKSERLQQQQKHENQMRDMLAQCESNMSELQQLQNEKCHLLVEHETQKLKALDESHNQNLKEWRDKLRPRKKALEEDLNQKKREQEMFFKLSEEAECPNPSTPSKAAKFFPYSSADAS
T5 sequence (Q7KZI7 1-725 isoform Q7KZI7-4): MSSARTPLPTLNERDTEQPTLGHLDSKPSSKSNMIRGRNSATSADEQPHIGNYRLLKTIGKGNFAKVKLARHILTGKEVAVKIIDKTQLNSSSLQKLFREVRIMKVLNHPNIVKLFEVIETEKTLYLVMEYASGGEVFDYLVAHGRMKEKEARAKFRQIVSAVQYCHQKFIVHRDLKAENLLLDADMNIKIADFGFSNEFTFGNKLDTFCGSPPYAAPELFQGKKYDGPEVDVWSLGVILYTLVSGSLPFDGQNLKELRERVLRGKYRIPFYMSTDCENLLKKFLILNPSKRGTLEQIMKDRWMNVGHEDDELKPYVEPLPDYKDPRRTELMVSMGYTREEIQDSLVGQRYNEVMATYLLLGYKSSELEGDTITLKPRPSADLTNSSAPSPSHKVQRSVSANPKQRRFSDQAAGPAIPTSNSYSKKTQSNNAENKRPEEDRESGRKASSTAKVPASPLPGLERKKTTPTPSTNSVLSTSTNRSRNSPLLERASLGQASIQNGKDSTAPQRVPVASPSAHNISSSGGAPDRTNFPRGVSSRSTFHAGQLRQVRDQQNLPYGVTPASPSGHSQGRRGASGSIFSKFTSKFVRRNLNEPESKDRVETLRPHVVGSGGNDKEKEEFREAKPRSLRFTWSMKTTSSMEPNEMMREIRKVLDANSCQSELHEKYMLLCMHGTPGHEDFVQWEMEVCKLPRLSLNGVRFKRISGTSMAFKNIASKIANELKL
T1 sequence (P53667 whole entry): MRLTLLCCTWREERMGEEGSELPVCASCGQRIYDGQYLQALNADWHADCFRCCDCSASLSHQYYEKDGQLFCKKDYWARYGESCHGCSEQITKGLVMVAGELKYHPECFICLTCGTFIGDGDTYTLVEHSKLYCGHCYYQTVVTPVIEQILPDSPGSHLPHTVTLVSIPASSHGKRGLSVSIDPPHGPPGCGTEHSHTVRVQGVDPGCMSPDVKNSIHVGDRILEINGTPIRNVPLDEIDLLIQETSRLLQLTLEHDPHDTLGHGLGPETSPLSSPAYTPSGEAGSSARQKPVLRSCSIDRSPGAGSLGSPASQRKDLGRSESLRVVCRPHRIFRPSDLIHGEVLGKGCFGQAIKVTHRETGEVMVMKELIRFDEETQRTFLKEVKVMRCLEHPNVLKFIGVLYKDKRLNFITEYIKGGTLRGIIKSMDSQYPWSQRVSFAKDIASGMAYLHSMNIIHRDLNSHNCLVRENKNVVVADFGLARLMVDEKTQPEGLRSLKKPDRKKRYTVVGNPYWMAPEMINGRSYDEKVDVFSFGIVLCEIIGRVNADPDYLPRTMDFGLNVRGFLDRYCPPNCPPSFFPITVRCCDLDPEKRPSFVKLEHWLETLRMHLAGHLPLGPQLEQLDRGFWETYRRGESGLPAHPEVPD

`CCCCCCCCCCCCOC(=O)CCC(=O)N1CCN(CCCOc2cc3c(Nc4ccc(F)c(Cl)c4)ncnc3cc2OC)CC1` [Analogue-18, dodecyl 4-(4-(3-(4-(3-chloro-4-fluorophenylamino)-7-methoxyquinazolin-6-yloxy)propyl)piperazin-1-yl)-4-oxobutanoate] was tested, and the reducing cell viability ([1]; H1299, 0 to 40 μM, compared with Iressa) was “more effective on reducing cell viability than Iressa”, the toxicity effects ([1]; H1299, 40 μM) was “more than 99%” and the “resistance of survivin-overexpressing cells to induced apoptosis” value (A549 cells) was “the transfection of pCT-GFP-sur8 was more resistant to the Analogue-18-induced apoptosis than pCT-GFP2”. The remaining activity at 10 µM [2] was 82%, the remaining activity at 10 µM [3] was 82% and the survivin protein expression (survivin) was “significantly inhibited surviving protein expression”. For the same molecule, the IC50 (EGFR protein kinase; by the IVIS system) was about 130 nM, the IC50 (EGFR protein kinase; by the Luminometer) was about 126 nM and the remaining activity at 10 µM [4] was 43%. It also gave a remaining activity at 10 µM (MARK2 (PAR-1Ba)) of 84%.
